Read-outs that look alike come from different tables or passages of the source.
Key:
[1] = test system: MDA-MB-231 (breast cancer cells); assay: MTT cancer cell growth inhibition; format: cell-based; settings: Homo sapiens, MDA-MB-231, 72 h, read-out: GI50 MDA-MB-231, MTT, 72 hours incubation, MDA-MB-231 cells
In short: (§1)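 Using a 72 h MTT format, triplicate wells of 1500 cells received compound concentrations from 10^−5 to 10^−10 M. Formazan was read at 570 nm after DMSO dissolution, and GI50 was derived from viability.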

[2] = test system: HT1080 (human fibrosarcoma cells); assay: MTT cancer cell growth inhibition; format: cell-based; settings: Homo sapiens, HT-1080, 72 h, MTT, 72 hours incubation, read-out: GI50 HT1
In short: as §1

[3] = test system: KBM5-T315I (human chronic myelogenous leukemia); assay: MTT cancer cell growth inhibition; format: cell-based; settings: Homo sapiens, 72 h, MTT, 72 hours incubation, KBM5-T315I cells; read-out: GI50 KBM5-T315I
In short: as §1

[4] = test system: KBM-5 (human chronic myelogenous leukemia); assay: MTT cancer cell growth inhibition; format: cell-based; settings: Homo sapiens, KBM5, 72 h, MTT, 72 hours incubation, KBM-5 cells; read-out: GI50 KBM-5
In short: as §1

[5] = test system: A549 (human lung cancer cells); assay: MTT cancer cell growth inhibition; format: cell-based; settings: Homo sapiens, A549, 72 h, MTT, 72 hours incubation, read-out: GI50 A54
In short: as §1

[6] = test system: BGC-823 (human gastric cancer cells); assay: MTT cancer cell growth inhibition; format: cell-based; settings: Homo sapiens, BGC-823, 72 h, MTT, 72 hours incubation, read-out: GI50 BG
In short: as §1

[7] = test system: lncap (prostate cancer cells); assay: MTT cancer cell growth inhibition; format: cell-based; settings: Homo sapiens, LNCaP, 72 h, MTT, 72 hours incubation, read-out: GI50 lnca
In short: as §1

[8] = test system: Huh-7 (human hepatoma cells); assay: MTT cancer cell growth inhibition; format: cell-based; settings: Homo sapiens, Huh-7, 72 h, MTT, 72 hours incubation, Huh-7 cells; read-out: GI50 Huh-7
In short: as §1

[9] = test system: K562 (human leukemia cells); assay: MTT cancer cell growth inhibition; format: cell-based; settings: Homo sapiens, K562, 72 h, MTT, 72 hours incubation, K562 cells; read-out: GI50 K562
In short: as §1

[10] = test system: H1975 (non-small cell lung adenocarcinoma); assay: MTT cancer cell growth inhibition; format: cell-based; settings: Homo sapiens, NCI-H1975, 72 h, MTT, 72 hours incubation, H1975 cells; read-out: GI50 H1975
In short: as §1

[11] = test system: MCF-7 (human breast cancer cells); assay: MTT cancer cell growth inhibition; format: cell-based; settings: Homo sapiens, MCF7, 72 h, 72 hours incubation, read-out: GI50 MCF
In short: as §1

[12] = test system: SGC-7901 (human gastric cancer cells); assay: MTT cancer cell growth inhibition; format: cell-based; settings: Homo sapiens, SGC-7901, 72 h, MTT, 72 hours incubation, SGC-7901 cells; read-out: GI50 SGC-7901
In short: as §1

[13] = test system: N-87 (human gastric cancer cells); assay: MTT cancer cell growth inhibition; format: cell-based; settings: Homo sapiens, 72 h, MTT, 72 hours incubation, N-87 cells; read-out: GI50 N-87
In short: as §1

[14] = test system: U937 (human leukemia cells); assay: MTT cancer cell growth inhibition; format: cell-based; settings: Homo sapiens, U-937, 72 h, MTT, 72 hours incubation, read-out: GI50 U93
In short: as §1

[15] = test system: PANC-1 (Pac-1, human pancreatic cancer cells); assay: MTT cancer cell growth inhibition; format: cell-based; settings: Homo sapiens, PANC-1, 72 h, MTT, 72 hours incubation, read-out: GI50 PAN
In short: as §1

[16] = test system: MOLT-4 (human acute lymphoblastic leukemia cells); assay: MTT cancer cell growth inhibition; format: cell-based; settings: Homo sapiens, MOLT-4, 72 h, MTT, 72 hours incubation, read-out: GI50 Mol
In short: as §1

[17] = test system: HCC827 (human non-small cell lung cancer cells); assay: MTT cancer cell growth inhibition; format: cell-based; settings: Homo sapiens, HCC827, 72 h, MTT, 72 hours incubation, HCC827 cells; read-out: GI50 HCC827
In short: as §1

[18] = test system: DU145 (human prostate cancer cells); assay: MTT cancer cell growth inhibition; format: cell-based; settings: Homo sapiens, DU-145, 72 h, MTT, 72 hours incubation, read-out: GI50 Du1
In short: as §1

[19] = test system: Bel-7402 (human hepatoma cells); assay: MTT cancer cell growth inhibition; format: cell-based; settings: Homo sapiens, Bel-7402, 72 h, MTT, 72 hours incubation, Bel-7402 cells; read-out: GI50 Bel-7402
In short: as §1

[20] = test system: Hela (human cervical cancer cells); assay: MTT cancer cell growth inhibition; format: cell-based; settings: Homo sapiens, HeLa, 72 h, MTT, 72 hours incubation, read-out: GI50 Hela
In short: as §1

HDAC7 = target: T1, HDAC7 (Homo sapiens, UniProt Q8WUI4); assay: HDAC biochemical activity measurement (fluorescent substrate deacetylation);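 as to all read-outs here: fluorogenic deacetylation assay using acetyl-lysine substrate at 20 µM, enzyme and compound incubated 30 min at 37 °C, then developer added, fluorescence read at 360/460 nm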; settings: for IC50 HDAC7: 37° C. 30 minutes
T1 sequence (Q8WUI4 1-952): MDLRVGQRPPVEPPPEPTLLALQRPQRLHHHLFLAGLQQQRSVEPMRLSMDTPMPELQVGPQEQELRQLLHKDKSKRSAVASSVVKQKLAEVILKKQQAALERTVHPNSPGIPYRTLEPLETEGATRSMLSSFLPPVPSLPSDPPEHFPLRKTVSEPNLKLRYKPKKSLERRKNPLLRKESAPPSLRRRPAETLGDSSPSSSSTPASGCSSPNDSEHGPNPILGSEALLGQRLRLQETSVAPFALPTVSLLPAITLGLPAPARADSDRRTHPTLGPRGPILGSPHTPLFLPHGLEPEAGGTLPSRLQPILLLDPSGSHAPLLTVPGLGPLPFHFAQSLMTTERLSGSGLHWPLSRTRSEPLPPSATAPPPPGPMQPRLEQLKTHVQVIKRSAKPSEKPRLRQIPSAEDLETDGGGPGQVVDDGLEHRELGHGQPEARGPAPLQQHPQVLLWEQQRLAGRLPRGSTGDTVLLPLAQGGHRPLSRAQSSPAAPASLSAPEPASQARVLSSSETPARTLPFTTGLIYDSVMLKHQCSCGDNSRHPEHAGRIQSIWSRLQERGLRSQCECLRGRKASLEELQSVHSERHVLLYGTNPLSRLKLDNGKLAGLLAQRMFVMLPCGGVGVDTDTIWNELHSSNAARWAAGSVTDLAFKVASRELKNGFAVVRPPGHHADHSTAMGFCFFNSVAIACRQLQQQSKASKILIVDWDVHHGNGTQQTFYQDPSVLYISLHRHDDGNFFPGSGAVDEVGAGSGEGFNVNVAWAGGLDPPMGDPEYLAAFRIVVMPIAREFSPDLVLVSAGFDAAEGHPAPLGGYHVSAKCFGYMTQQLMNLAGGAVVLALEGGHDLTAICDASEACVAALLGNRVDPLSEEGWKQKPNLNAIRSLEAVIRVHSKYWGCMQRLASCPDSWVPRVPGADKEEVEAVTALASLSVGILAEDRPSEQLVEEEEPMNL

Row | GI50 [1] [nM] | GI50 [2] [nM] | GI50 [3] [nM] | GI50 [4] [nM] | GI50 [5] [nM] | GI50 [6] [nM] | GI50 [7] [nM] | GI50 [8] [nM] | GI50 [9] [nM] | GI50 [10] [nM] | GI50 [11] [nM] | GI50 [12] [nM] | GI50 [13] [nM] | GI50 [14] [nM] | GI50 [15] [nM] | GI50 [16] [nM] | GI50 [17] [nM] | GI50 [18] [nM] | GI50 [19] [nM] | IC50 HDAC7 (HDAC7) | Compound | other results
1 | 92 | 39200 | 29 | 59 | 15400 | 3300 | 700 | 62 | 27 | 42 | 53600 | 29 | 38 | 2290 | 550 | 300 | 33 | 1300 | 93 | no activity | C/C=C1\NC(=O)c2cccc(n2)CNC(=O)C[C@@H](/C=C/CCSC(C)=O)OC(=O)[C@@H](C)NC1=O [Example 25] | GI50 [20]: 67700 nM
2 | 38 | – | 81 | 66 | – | – | – | 55 | 35 | 63 | – | 49 | 36 | – | – | – | 53 | – | 42 | – | C/C=C1\NC(=O)c2cc(SCC)cc(n2)CNC(=O)C[C@@H](/C=C/CCSC(=O)CCCCCC)OC(=O)[C@H](C(C)C)NC1=O [Compound 251] | GI50 ([2]; HT1080 cells): 20 nM; GI50 ([5]; A549 cells): 60 nM; GI50 ([6]; BGC-823 cells): 30 nM; GI50 ([7]; lncap cells): 90 nM; GI50 ([11]; MCF-7 cells): 40 nM; GI50 ([14]; U937 cells): 30 nM; GI50 ([15]; PANC-1 cells): 50 nM; GI50 ([16]; MOLT-4 cells): 70 nM; GI50 ([18]; DU145 cells): 20 nM; GI50 ([20]; Hela cells): 20 nM; IC50 (μM) HDAC7 (HDAC7): no activity

More lines, now with the values behind:

Row | Compound | GI50 [1] [nM] | GI50 [2] [nM] | GI50 [3] [nM] | GI50 [4] [nM] | GI50 [5] [nM] | GI50 [6] [nM] | GI50 [7] [nM] | GI50 [8] [nM] | GI50 [9] [nM] | GI50 [10] [nM] | GI50 [11] [nM] | GI50 [12] [nM] | GI50 [13] [nM] | GI50 [14] [nM] | GI50 [15] [nM] | GI50 [16] [nM] | GI50 [17] [nM] | GI50 [18] [nM] | GI50 [19] [nM] | IC50 HDAC7 (HDAC7) | other results
3 | C/C=C1\NC(=O)c2nc(ccc2SCC)CNC(=O)C[C@@H](/C=C/CCSC(=O)CCCCCC)OC(=O)[C@H](C(C)C)NC1=O [Compound 250] | 21 | – | 79 | 53 | – | – | – | 27 | 27 | 38 | – | 63 | 43 | – | – | – | 45 | – | 58 | – | GI50 ([2]; HT1080 cells): 60 nM; GI50 ([5]; A549 cells): 40 nM; GI50 ([6]; BGC-823 cells): 40 nM; GI50 ([7]; lncap cells): 50 nM; GI50 ([11]; MCF-7 cells): 40 nM; GI50 ([14]; U937 cells): 80 nM; GI50 ([15]; PANC-1 cells): 30 nM; GI50 ([16]; MOLT-4 cells): 30 nM; GI50 ([18]; DU145 cells): 50 nM; GI50 ([20]; Hela cells): 70 nM; IC50 (μM) HDAC7 (HDAC7): no activity
4 | C/C=C1\NC(=O)c2nc(ccc2F)CNC(=O)C[C@@H](/C=C/CCSC(C)=O)OC(=O)[C@@H](C)NC1=O [Compound 100] | 78 | 90 | 31 | 35 | 50 | 20 | 30 | 27 | 34 | 53 | 20 | 57 | 32 | 60 | 90 | 30 | 17 | 20 | 71 | no activity | GI50 [20]: 70 nM
5 | C/C=C1\NC(=O)c2ccc(SC)c(n2)CNC(=O)C[C@@H](/C=C/CCSC(C)=O)OC(=O)[C@@H](C)NC1=O [Compound 222] | 52 | – | 35 | 43 | – | – | – | 39 | 83 | 83 | – | 47 | 98 | – | – | – | 63 | – | 14 | no activity | GI50 ([2]; HT1080 cells): 70 nM; GI50 ([5]; A549 cells): 50 nM; GI50 ([6]; BGC-823 cells): 40 nM; GI50 ([7]; lncap cells): 60 nM; GI50 ([11]; MCF-7 cells): 70 nM; GI50 ([14]; U937 cells): 80 nM; GI50 ([15]; PANC-1 cells): 30 nM; GI50 ([16]; MOLT-4 cells): 30 nM; GI50 ([18]; DU145 cells): 30 nM; GI50 ([20]; Hela cells): 20 nM
6 | C=C1NC(=O)c2cc(F)cc(n2)CNC(=O)C[C@@H](/C=C/CCSC(C)=O)OC(=O)[C@H](C)NC1=O [Compound 91] | 46 | 50 | 31 | 91 | 40 | 60 | 40 | 46 | 26 | 38 | 30 | 48 | 62 | 30 | 50 | 40 | 51 | 20 | 51 | no activity | GI50 [20]: 90 nM
